Among the test systems are 786-0 renal; CAKI-1 renal; HOP-92 NSCLC; M14 melanoma; MOLT-4 leukemia; NCI-H23 lung; NCI-H522 lung; RPMI-8226 leukemia; SN12C renal; SNB-19 CNS.
What all share (assay): NCI tumour cell line growth inhibition, 48 h

SMILES strings stand for the structures.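 Results reflect a 48-hour exposure of cells in 96-well plates to compound at five concentrations. GI50 is the concentration that inhibits growth by half. TGI denotes the concentration required for complete inhibition of growth.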

For 8 molecules, GI50 and TGI results are on record in PubChem BioAssay (NCI).

Consider `CCOC(=O)C1=C(C)N(Cc2ccc(Cl)cc2Cl)[C@]2(C#N)C(O)=C(Cl)C(Cl)=C(O)[C@]12C#N`, for which the GI50 is greater than 100 µM in the assay with 786-0 renal; greater than 100 µM with CAKI-1 renal; 17.9 µM in the assay with HOP-92 NSCLC; greater than 100 µM in the assay on M14 melanoma; 27.9 µM in the assay on MOLT-4 leukemia; 16.3 µM with NCI-H23 lung. The GI50 is 42.5 µM with NCI-H522 lung, 21.2 µM in the assay with RPMI-8226 leukemia, 73.9 µM in the assay on SN12C renal and 92.8 µM with SNB-19 CNS. Also, the TGI in the assay with 786-0 renal was greater than 100 µM; in the assay on CAKI-1 renal it was greater than 100 µM; in the assay with HOP-92 NSCLC it was 44.2 µM; in the assay with M14 melanoma it was greater than 100 µM; in the assay with MOLT-4 leukemia it was 61.6 µM; with NCI-H23 lung, 80.4 µM. Also, the TGI with NCI-H522 lung is greater than 100 µM; with RPMI-8226 leukemia it was 47.3 µM; in the assay with SN12C renal, greater than 100 µM; in the assay on SNB-19 CNS it was greater than 100 µM.
Take `N#Cc1cccc(C2C3=C(COC3=O)N(CCO)c3cc4c(cc32)CCC4)c1` (stereo not given): the GI50 is 0.18 µM with 786-0 renal; 0.109 µM in the assay with CAKI-1 renal; 0.871 µM in the assay with HOP-92 NSCLC; 0.0832 µM with M14 melanoma; 0.203 µM with MOLT-4 leukemia; 0.302 µM in the assay on NCI-H23 lung. Moreover, the GI50 was 0.025 µM in the assay with NCI-H522 lung, 0.212 µM in the assay on RPMI-8226 leukemia, 0.261 µM in the assay on SN12C renal and 0.18 µM in the assay with SNB-19 CNS. Moreover, the TGI in the assay on 786-0 renal is greater than 50 µM; in the assay with CAKI-1 renal, greater than 50 µM; in the assay on HOP-92 NSCLC, 35.3 µM; in the assay on M14 melanoma it was 0.293 µM; with MOLT-4 leukemia, greater than 50 µM; in the assay on NCI-H23 lung, greater than 50 µM. The TGI in the assay with NCI-H522 lung was 1.67 µM; in the assay with RPMI-8226 leukemia, greater than 28.1 µM; with SN12C renal, greater than 50 µM; in the assay with SNB-19 CNS it was greater than 50 µM.
Take `Nc1c(C(=O)Nc2ccccn2)sc2nc3c(cc12)CCCCCC3`: the GI50 in the assay with 786-0 renal was 0.776 µM; with CAKI-1 renal, 1.56 µM; in the assay on HOP-92 NSCLC, 1.86 µM; with M14 melanoma, 0.295 µM; in the assay on MOLT-4 leukemia, 0.392 µM; in the assay on NCI-H23 lung it was 2.25 µM. The GI50 in the assay on NCI-H522 lung is 1.79 µM; in the assay on RPMI-8226 leukemia, 0.915 µM; in the assay on SN12C renal it was 3.17 µM; with SNB-19 CNS, 1.22 µM. Moreover, the TGI in the assay with 786-0 renal was 6.24 µM; in the assay with CAKI-1 renal, 9.33 µM; with HOP-92 NSCLC, 11.4 µM; with M14 melanoma it was 3.05 µM; in the assay on MOLT-4 leukemia it was greater than 50 µM; in the assay on NCI-H23 lung, greater than 50 µM. The TGI with NCI-H522 lung is greater than 50 µM; in the assay on RPMI-8226 leukemia, 30 µM; in the assay on SN12C renal, 37.3 µM; with SNB-19 CNS it was 13.8 µM.
`Nc1n[nH]c2ccc([C@@H]3Nc4c(F)cc5[nH]ncc5c4[C@H]4C5CCC(C5)[C@@H]34)cc12` (stereo not given in full): the GI50 is 0.74 µM with 786-0 renal; 0.329 µM in the assay with CAKI-1 renal; 1.48 µM in the assay on HOP-92 NSCLC; 0.206 µM in the assay with M14 melanoma; 0.439 µM with MOLT-4 leukemia; 0.46 µM in the assay on NCI-H23 lung. Further, the GI50 in the assay on NCI-H522 lung is 0.102 µM; with RPMI-8226 leukemia, 0.472 µM; with SN12C renal it was 0.544 µM; in the assay on SNB-19 CNS it was 0.515 µM. Moreover, the TGI is 25 µM with 786-0 renal; greater than 47.5 µM in the assay on CAKI-1 renal; greater than 29.3 µM in the assay with HOP-92 NSCLC; greater than 32.8 µM with M14 melanoma; greater than 45.5 µM with MOLT-4 leukemia; 21.8 µM with NCI-H23 lung. In addition, the TGI in the assay with NCI-H522 lung is 2.17 µM; in the assay with RPMI-8226 leukemia, 24.6 µM; with SN12C renal, greater than 54.9 µM; with SNB-19 CNS, greater than 62.9 µM.
For `O=[N+]([O-])c1ccc(/C=C\c2ccc3c(c2)OCO3)c([N+](=O)[O-])c1`, the TGI with 786-0 renal is greater than 100 µM; with CAKI-1 renal, 92 µM; in the assay with HOP-92 NSCLC, 53.5 µM; in the assay with M14 melanoma, 31.1 µM; in the assay on MOLT-4 leukemia, 33.8 µM; in the assay on NCI-H23 lung, 48.6 µM. The TGI with NCI-H522 lung was 25.6 µM; with RPMI-8226 leukemia it was 19.2 µM; in the assay on SN12C renal it was 34 µM; in the assay with SNB-19 CNS it was 33.6 µM.
`Cc1ccc(O)cc1Nc1ccnc2cc(-c3ccccn3)ccc12`: the GI50 in the assay with 786-0 renal is 2.98 µM; in the assay on CAKI-1 renal it was 1.05 µM; with HOP-92 NSCLC, 0.292 µM; in the assay on M14 melanoma, 3.24 µM; with MOLT-4 leukemia, 4.18 µM; in the assay on NCI-H23 lung, 3.59 µM. In addition, the GI50 is 0.931 µM in the assay with NCI-H522 lung, 4.25 µM with RPMI-8226 leukemia, 2.46 µM in the assay on SN12C renal and 4.54 µM in the assay with SNB-19 CNS. For the same molecule, the TGI in the assay with 786-0 renal came out at 6.66 µM; with CAKI-1 renal, 4.36 µM; in the assay with HOP-92 NSCLC, 3.02 µM; in the assay on M14 melanoma, 7.51 µM; with MOLT-4 leukemia, 10.7 µM; with NCI-H23 lung it was 10.9 µM. Also, the TGI with NCI-H522 lung was 4.6 µM; with RPMI-8226 leukemia it was 9.88 µM; in the assay with SN12C renal it was 7.51 µM; with SNB-19 CNS, 18.3 µM.
For the molecule `Cc1c(C)c2ccc(OC(C)C(=O)O)cc2oc1=O` (stereo not given), the TGI in the assay with 786-0 renal, in the assay on CAKI-1 renal, with HOP-92 NSCLC, with M14 melanoma, with MOLT-4 leukemia and in the assay with NCI-H23 lung was greater than 100 µM each time. For the same molecule, the TGI with NCI-H522 lung, with RPMI-8226 leukemia, with SN12C renal and with SNB-19 CNS was greater than 100 µM throughout.
On to `CC/C(=C(/c1ccc(/C=C/C(=O)O)cc1)c1ccc2[nH]ncc2c1)c1ccc(F)cc1Cl`, for which the GI50 in the assay with 786-0 renal was 7.83 µM; in the assay on CAKI-1 renal, 11.9 µM; in the assay with HOP-92 NSCLC it was 10.1 µM; in the assay with M14 melanoma, 7.84 µM; in the assay with MOLT-4 leukemia, 11.3 µM; in the assay on NCI-H23 lung it was 15.4 µM. The GI50 was 9.42 µM in the assay on NCI-H522 lung, 7.72 µM in the assay on RPMI-8226 leukemia, 14.7 µM with SN12C renal and 12.9 µM in the assay on SNB-19 CNS. Moreover, the TGI in the assay with 786-0 renal stood at 21.1 µM; with CAKI-1 renal, 25.6 µM; in the assay on HOP-92 NSCLC, 24.8 µM; with M14 melanoma, 27.1 µM; in the assay with MOLT-4 leukemia, 37.3 µM; with NCI-H23 lung, 37.8 µM. The TGI in the assay on NCI-H522 lung was 28.2 µM; with RPMI-8226 leukemia it was 41 µM; in the assay with SN12C renal it was 44.6 µM; with SNB-19 CNS, 31.2 µM.
